What was measured:
[1] = molecular target: 5-hydroxytryptamine receptor 1A (Bos taurus); test: Binding affinity against 5-hydroxytryptamine 1A receptor from bovine hippocampus, used [3H]8-OH-DPAT as radioligand
[2] = as above

Row | SMILES | Ki [1] [nM] | Ki [2] [nM]
1 | Cc1[nH]c2cccc3c2c1C[C@@H]1C3C[C@H](NC(=O)C(C)(C)C)CN1C (some centres not stated) [SDZ-208-911] | 19 | –
2 | CCCN1CC[C@H]2c3c(cccc3OC)CC[C@H]21 [(3aS,9bR) 9-Methoxy-3-propyl-2,3,3a,4,5,9b-hexahydro-1H-benzo[e]indole] | – | 4.4

Reference: BindingDB's records for doi:10.1021/jm00062a001 (Upjohn Laboratories, 1993)
